In article PMC8251916 (Chemistry (Weinheim an Der Bergstrasse, Germany), 2021):
Where two headings read alike, the source gives them in different places.

Assays:
MRC5 non-tumoral cells = assay: Cytotoxicity, alamarBlue assay, MRC5; format: cell-based, human; conditions: 72 h incubation, alamarBlue fluorescence, read-out: absolute EC50 MRC5
Procedure: (§1) Doxorubicin, suramin and miltefosine were used as control compounds.[ ^6b , ^9 ] After incubation with varied concentrations of the compounds for 72 h, cell viability was measured using either an alamarBlue™ assay (for MRC5, HeLa and T. brucei) or MTT assay (for L. major). Absolute EC50 values and selectivity indexes were then calculated from dose‐response curves (Table 2 and S14). […]
(§2) Cell culture reagents were purchased from Thermo Fisher Scientific (Waltham, MA, USA) and used as-is. The Dulbecco’s Minimal Essential Medium (DMEM) formulation contained either high glucose (4.5 g/L, catalogue number: 10569) or low glucose (1 g/L, catalogue number:
(§3) 10567). RPMI-1640 was provided without sodium pyruvate and with L-glutamine (catalogue number: 11875). Phosphate Buffered Saline (PBS) contained NaCl (9 g/L), KH2PO4 (144 mg/L) and Na2HPO4-7.H2O (795 mg/L, catalogue number: 10010049). TrypLE Express™ was provided with EDTA (458 mg/L) and without Phenol Red (catalogue number: 12604021).
(§4) MRC-5 cells (human lung fibroblasts) were grown in monolayer (37 °C, 5 % CO2 and 100 % humidity) in DMEM medium (1 g/L glucose), supplemented with 10% heat-inactivated Fetal Bovine Serum (hiFBS), 2 mM L-glutamine, 100 U / mL penicillin and […]
(§5) streptomycin. […]
(§6) Cells were cultured according to ATCC recommendations and were used for the experiments while in the exponential growth phase. […]
(§7) Cytotoxicity was measured through the alamarBlue® assay (Thermo Fisher Scientific).[S6,S13] Briefly, 5×10^3 MRC-5 or HeLa cells were seeded in 96-wells plates (100 µL / well) in the presence of increasing concentrations of compound. After 72 hrs of incubation at 37 °C, 20 µL of alamarBlue® solution (110 ng / ml) was added to each well and cells were reincubated for 4 hrs at 37 °C. Then, 50 µL of 3 % SDS were added to each well. The plate was incubated at 37 °C for an extra hour and then analysed by fluorescence with an Infinite F200 plate reader (TECAN Austria, GmbH). The excitation wavelength was fixed at 550 nm and the emission wavelength at 590 nm. The results are expressed as the concentration of compound that reduces

T. brucei = assay: Trypanocidal activity, alamarBlue assay; format: cell-based; conditions: for EC50: Trypanosoma brucei, 72 h incubation, alamarBlue fluorescence, read-out: absolute EC50 T. brucei
Procedure: as §1, §2, §3, §4, §5, §6
hiFBS. Parasites were split every other day and maintained in their experimental growth phase (below 2 million parasites per mL).
as §7

[1] = tested on: Febr1T-K+ (T. brucei G-quadruplex); assay: FRET melting assay, T. brucei G4; format: binding; conditions: 200 nM DNA, PIPER and 3 not reliable (spectral overlap)
Procedure: (§8) With the library in hand, we began our investigation into G4 stabilization by conducting a Förster resonance energy transfer (FRET) melting assay to assess DNA stabilization using the procedure outlined by De Cian et. al. ^[13] […] The sequences examined (at 200 nM) were the human telomeric G4 in potassium buffer (F21T‐K^+, mixed parallel/hybrid G4) ^[14] and sodium buffer (F21T‐Na^+, antiparallel G4), ^[15] the c‐Myc promoter G‐quadruplex (FmycT‐K^+, parallel G4), ^[16] a polymorphic G4 found in T. brucei (FEBR1T‐K^+, a mixed G4 topology), ^[6b] and a hairpin duplex DNA sequence (F10T‐K^+). Together, these sequences represent targets for therapeutic intervention to treat parasitic infections, ^[6b] or cancer. ^[1b] The topology of each sequence was confirmed independently via circular dichroism (CD, Figure S1). […]
(§9) FRET melting assays were performed to assess ligand affinity for duplex and G-quadruplex
(§10) DNA. Briefly, oligonucleotides of interest were obtained labelled at the 5’ and 3’ ends with FAM (a fluorescence donor) and TAMRA (a fluorescence quencher), respectively. In the folded state, proximity of the donor and quencher result in no observed fluorescence from FAM, since energy is transferred non-radiatively to TAMRA by FRET. As the temperature is raised and the secondary structure denatures, the fluorophores move further apart and the fluorescence signal increases. From the resulting curve, the characteristic melting temperature (Tmax, also referred to as Tm) is defined as the temperature which corresponds to the maxima of the first derivative of the normalised fluorescence signal. The change in melting temperature (ΔTm) induced by the presence of a small molecule ligand provides an indication of the ligand’s ability to stabilise the DNA structure. FRET experiments were performed according to the […]
(§11) procedure reported by De Cian and co-workers[S3] on a Stratagene MX3005P. The method consisted of holding at 25 °C for 5 min, before heating at 1 °C/min to 96 °C in 1 °C increments, […]

[2] = tested on: F10T-K+ (hairpin duplex DNA); assay: FRET melting assay, hairpin duplex DNA; format: binding; conditions: 200 nM DNA, PIPER and 3 not reliable (spectral overlap)
Procedure: as §8, §9, §10, §11

[3] = tested on: HeLa cervical carcinoma cells; assay: Cytotoxicity, alamarBlue assay, HeLa; format: cell-based, human; conditions: for EC50: Homo sapiens, HeLa, 72 h incubation, alamarBlue fluorescence, read-out: absolute EC50 HeLa
Procedure: as §1, §2, §3
MRC-5 cells (human lung fibroblasts) were grown in monolayer (37 °C, 5 % CO2 and 100 % humidity) in DMEM medium (1 g/L glucose), supplemented with 10% heat-inactivated Fetal Bovine Serum (hiFBS), 2 mM L-glutamine, 100 U / mL penicillin and […] streptomycin. HeLa (Human cervical carcinoma cell line) cells were maintained at 37 °C and 5 % CO2 in high glucose DMEM (4.5 g / L) supplemented with 10% hiFBS, 100 U / ml penicillin, […] streptomycin, 2 mM L-glutamine and non-essential aminoacids (1X).
as §6, §7

[4] = tested on: FmycT-K+ (c-Myc promoter G-quadruplex, parallel); assay: FRET melting assay, c-Myc promoter G4; format: binding; conditions: 200 nM DNA, PIPER and 3 not reliable (spectral overlap)
Procedure: as §8, §9, §10, §11

[5] = tested on: Febr1T (DNA, G4) GGGCAGGGGGTGATGGGGAGGAGCCAGGG; assay: FRET melting; conditions: 10 mM K+, 90 mM Li+; 10 mM Li cacodylate; 5 µM ligand, 200 nM DNA
[6] = selectivity index from EC50 values
[7] = 5 μM ligand, 10 mM KCl, 90 mM LiCl, 10 mM Li cacodylate
[8] = 5 μM ligand, 1 mM KCl, 99 mM LiCl, 10 mM Li cacodylate

Row | SMILES | EC50 (MRC5 non-tumoral cells) [µM] | EC50 (MRC5 non-tumoral cells; Homo sapiens, MRC5, 72 h) [µM] | EC50 (T. brucei) [nM] | SI (MRC5/T. brucei) (T. brucei; [6]) | ΔTm Febr1T-K+ ([1]; 1 µM ligand) [°C] | ΔTm Febr1T-K+ [1, 7] [°C] | ΔTm Febr1T-K+ ([1]; 10 µM ligand) [°C] | ΔTm F10T-K+ ([2]; 1 µM ligand) [°C] | ΔTm F10T-K+ [2, 7] [°C] | ΔTm F10T-K+ ([2]; 10 µM ligand) [°C] | EC50 [3] [µM] | SI (MRC5/HeLa) [3, 6] | ΔTm FmycT-K+ ([4]; 1 µM ligand) [°C] | ΔTm FmycT-K+ [4, 8] [°C] | ΔTm FmycT-K+ ([4]; 10 µM ligand) [°C] | ΔTm [5] [°C]
1 | CN1CCN(CCCN2C(=O)c3ccc4c5ccc6c7c(ccc(c8ccc(c3c48)C2=O)c75)C(=O)N(CCCN2CCN(C)CC2)C6=O)CC1 [Compound 3] | 2.1 ± 0.6 | 2 | 27 ± 10 | 78 | 2 ± 1 | 33±1 | 39 ± 1 | 1 ± 1 | 6±2 | 13 ± 2 | 53 ± 6.2 | 0.04 | 24 ± 1 | 37±2 | > 40 | 
2 | CN1CCN(CCCN2C(=O)c3ccc(Oc4ccc(C(C)(C)c5ccc(Oc6ccc7c(c6)C(=O)N(CCCN6CCN(C)CC6)C7=O)cc5)cc4)cc3C2=O)CC1 [Compound 9] |  | 88 ± 10 | 33000 ± 24000 |  |  | −4±1 | -3 ± 1 |  | 0±1 |  | 29 ± 3.5 |  |  | −1±2 | 10 ± 3 | −4±1
3 | CN1CCN(CCCN2C(=O)c3ccc4c5c(ccc(c35)C2=O)C(=O)N(CCCN2CCN(C)CC2)C4=O)CC1 [Compound 1] |  | 3.9 ± 0.5 | 610 ± 300 |  | 7 ± 3 | 9±1 | 11 ± 3 | 0 ± 1 | 1±1 | 3 ± 1 | 0.5 ± 0.05 |  |  |  |  | 9±1
4 | CN1CCN(CCCNC(=O)c2ccc(Oc3ccc(C(C)(C)c4ccc(Oc5ccc(C(=O)NCCCN6CCN(C)CC6)c(C(=O)NCCCN6CCN(C)CC6)c5)cc4)cc3)cc2C(=O)NCCCN2CCN(C)CC2)CC1 [Compound 11] |  | 59 ± 37 | 2800 ± 2000 |  | 1 ± 1 | 6±1 | 13 ± 1 |  | 0±1 | 1 ± 1 | 14 ± 1 |  | -3 ± 1 | 5±1 | 10 ± 2 | 6±1
